Here are results for one compound from US5780254A, “Method for detection of herbicides” (Sandoz Ltd, priority 1996, dated 1998).

Experiment [1] concerns Arabidopsis seeds. Briefly: Arabidopsis reversal assay with antidote compounds. Format: in vivo. The conditions noted are these: for Growth, % of Control: probe compound at 1.5× lethal concentration. As to the method: The solutions are filter sterilized prior to addition. FIG. 4 represents a typical set up in a reversion assay for discovering inhibitors of AMP biosynthesis.
The left side (columns 1-3) of the 24-well microtiter plate is designed for controls, and the right side (columns 4-6) are designated for one probe compound. […] Rows B,C and D are supplemented with three doses of an antidote for the control and probe compound. […] The three doses are 50,100 and 150 μl respectively.
Forty ml of Arabidopsis growth media as described in Example 1 is sterilized and allowed to cool to about 45° C. A probe compound (at 1.5× lethal concentration) is added to columns 4 through 6 (right half of the plate). Media is distributed at 1.0 ml per well to all wells. Sterile seeds are added to each well as described above. As in Example 1, the plate is incubated and growth is scored.

A further experiment has as its target T1, ADSS from E. coli (Escherichia coli, UniProt P0A7D4).
T1 construct: endogenous in cells; host or cells: E. coli
The experiment is described as follows: ADSS enzyme assay, E. coli ADSS. The conditions noted are these: E. coli ADSS (FIG. 6). Format: biochemical. The procedure: (§1) ADSS is obtained from 4-5 day old, etiolated seedlings of Zea mays. Seedlings are homogenized in a Waring blender with an equal volume (grams of tissue=mls of buffer) of extraction buffer containing 50 mM EPPS, pH 7.5, 5 mM MgCl2, 0.1 mM EDTA, 5 mM sodium bisulfite, 5 mM DTT, 0.1 mM phenylmethanesulfonyl fluoride and 10% glycerol. The extract is expressed through Miracloth (Calbiochem, La Jolla, Calif.) sandwiched between layers of cheesecloth. To precipitate phenolics and nucleic acids, 0.2 to 0.4% w/v protamine sulfate is added to the extract. The extract is stirred for 30 minutes, and then centrifuged at 45,000×G for 60 minutes. The resulting supernatant is fractionated with ammonium sulfate. Proteins are retained which precipitate at concentrations of ammonium sulfate greater than 45% saturation, but less than 55% saturation. Similar methods are used to isolate ADSS from wheat germ, E. coli and rat liver. ADSS activity is further purified by subjecting the preparation to DEAE cellulose chromatography. The column is equilibrated with chromatography buffer consisting of 50 mM EPPS, pH 7.5, 10% glycerol, 0.1 mM EDTA, 5 mM MgCl2 and 1 mM DTT. After loading the enzyme preparation, the column is washed with two bed volumes of the chromatography buffer, then eluted with a linear, 10-bed-volume gradient of 0 to 0.4M KCl dissolved in the same buffer. The peak of ADSS activity elutes at a KCl concentration of about 150 mM. Fractions containing activity are pooled and the proteins concentrated by ultrafiltration. At this stage, the enzyme is suitable for high capacity screening tests that are designed to discover inhibitory compounds. Alternatively, hydrophobic interaction chromatography can be used instead of DEAE-cellulose. This material is optionally further purified by passage through a column of Sephadex G-75 equilibrated with the chromatography buffer described above. The peak of ADSS activity elutes at a retention volume corresponding to a molecular weight of approximately 50,000 Da.
(§2) ADSS is assayed by anion exchange HPLC and by a continuous spectrophotometric assay. For the former, enzyme is diluted appropriately with 50 mM EPPS, pH 8.3, 10% ethylene glycol, 10 mM potassium phosphate and 1 mM MgCl2 to a volume of 92 μL. […] The column eluate is monitored at 270 nm using a Perkin-Elmer LC 480 diode array detector. Integrated peaks are quantified from standard curves. Identity of the products of the ADSS reaction, GDP and adenylosuccinate, are determined by comparing their retention times and spectra with those of authentic standards, purchased from Sigma Chemical Co.
(§3) For the spectrophotometric assay, reaction mixtures are the same as above, except that the volume is doubled. […] This method of quantification was validated using the HPLC method.

Another experiment has as its target T2, ADSS from rat liver (Rattus norvegicus, UniProt D4AEP0).
T2 construct: from tissue; host or cells: rat liver
The experiment is described as follows: ADSS enzyme assay, rat liver ADSS. It counts as biochemical. The conditions noted are these: rat liver ADSS (FIG. 6). As to the method: as §1, §2, §3

Experiment [2] deals with adenylosuccinate lyase (ASL). Briefly: Assay of adenylosuccinate lyase (ASL). The conditions noted are these: 1 mM concentration (data not shown). It counts as biochemical, Zea mays. The procedure:
ASL is obtained from three day old, etiolated seedlings of Zea mays (maize). Seedlings are homogenized in a Waring blender with an equal volume (grams of tissue=mls of buffer) of 20 mM potassium phosphate buffer (KP buffer) containing 1 mM DTT. The slurry is then filtered through a cheese cloth and the filtrate subjected to 100,000×g centrifugation for 60 minutes. The clear supernatant is used for assaying ASL activity.
A typical reaction mixture in 1 mL contains 100-300 μL of ASL and 0.15 mM adenylosuccinate (30 μL of a 5 mM solution in KP buffer), the rest being KP buffer. Disappearance of absorbance at 280 nm is followed as a function of time to determine the rate of ASL activity. Inhibitors when needed are included to a final concentration of 1 mM in the assay mixture to observe the effect on the ASL activity. Compounds hydantocidin, N-acetylhydantocidin, NAP-H and hadacidin had no effect on the rate of ASL activity at 1 mM concentration (data not shown).

Another experiment has as its system glutamine synthetase. Conditions: background statement; cited from earlier work.
For experiment [3] the following is noted: background statement; cited from earlier work.
For experiment [4], the system named is Arabidopsis seeds. Briefly: Arabidopsis bioassay, determination of the lethal concentration (LC 90). The conditions noted are these: Arabidopsis thaliana, 168 h, read-out: lethal concentration (LC 90).

T1 sequence (P0A7D4 2-432): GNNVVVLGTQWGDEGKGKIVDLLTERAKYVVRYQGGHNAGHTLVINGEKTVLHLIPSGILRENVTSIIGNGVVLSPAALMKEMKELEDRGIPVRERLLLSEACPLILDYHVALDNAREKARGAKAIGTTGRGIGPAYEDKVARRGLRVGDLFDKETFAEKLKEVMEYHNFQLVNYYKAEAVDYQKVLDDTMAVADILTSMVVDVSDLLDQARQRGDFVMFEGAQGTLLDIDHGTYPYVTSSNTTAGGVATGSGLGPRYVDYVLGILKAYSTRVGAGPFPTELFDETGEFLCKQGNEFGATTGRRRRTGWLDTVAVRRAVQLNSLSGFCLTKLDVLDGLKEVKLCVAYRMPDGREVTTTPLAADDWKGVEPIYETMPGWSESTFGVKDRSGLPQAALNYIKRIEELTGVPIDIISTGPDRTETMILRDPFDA
T2 sequence (D4AEP0 1-456): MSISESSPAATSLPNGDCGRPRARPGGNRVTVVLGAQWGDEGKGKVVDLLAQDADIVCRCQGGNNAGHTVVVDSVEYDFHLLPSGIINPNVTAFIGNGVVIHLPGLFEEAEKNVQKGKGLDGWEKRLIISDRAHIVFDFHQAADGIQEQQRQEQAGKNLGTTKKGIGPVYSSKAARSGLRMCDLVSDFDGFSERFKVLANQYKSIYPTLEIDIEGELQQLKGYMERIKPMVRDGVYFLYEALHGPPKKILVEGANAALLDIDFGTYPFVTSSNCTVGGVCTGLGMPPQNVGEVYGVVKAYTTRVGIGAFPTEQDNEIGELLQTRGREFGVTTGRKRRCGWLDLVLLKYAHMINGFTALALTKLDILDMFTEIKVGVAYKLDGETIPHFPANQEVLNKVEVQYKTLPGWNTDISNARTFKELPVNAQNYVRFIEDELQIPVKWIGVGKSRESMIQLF

On to `O=C1NC(=O)C2(N1)O[C@H](CO)[C@@H](O)[C@H]2O` (single isomer, unassigned) [hydantocidin, Hydantocidin], for which the “Growth, % of Control” value is given as 0% in the experiment with Arabidopsis seeds [1] (No antidote, 0 mM); 100% in the experiment with Arabidopsis seeds [1] (antidote ADP 0.5-5.0 mM); 100% with Arabidopsis seeds [1] (antidote AMP 0.5-5.0 mM); 40% with Arabidopsis seeds [1] (antidote ATP 0.5-5.0 mM); 60% in the experiment with Arabidopsis seeds [1] (antidote Adenine 0.5-5.0 mM); 80-100% in the experiment on Arabidopsis seeds [1] (antidote Adenosine 0.5-5.0 mM). Moreover, the “Growth, % of Control” value in the experiment with Arabidopsis seeds [1] (antidote Adenosine + Guanosine 0.5-5.0 mM) came out at 80%; in the experiment on Arabidopsis seeds [1] (antidote Cytidine + Uridine 0.5-5.0 mM) it was 0%; with Arabidopsis seeds [1] (antidote Guanine 0.5-5.0 mM), 0%; in the experiment with Arabidopsis seeds [1] (antidote Guanosine 0.5-5.0 mM) it was 0%; in the experiment with Arabidopsis seeds [1] (antidote Hypoxanthine 0.5-5.0 mM), 0%; in the experiment with Arabidopsis seeds [1] (antidote IMP 0.5-5.0 mM), 5%. In addition, the “reversal of growth inhibition (in words)” value in the experiment on Arabidopsis seeds [1] (antidote IMP, doses 50, 100 and 150 μl) is listed as “did not reverse growth inhibition”; in the experiment with Arabidopsis seeds [1] (antidotes adenosine and AMP, rows B and C, wells 4 through 6), “Complete growth is observed”. Further, the “reversal of inhibition at the lethal concentration (in words)” value with Arabidopsis seeds [1] (in the presence of AMP, ADP or adenine) is “completely reversed”. Moreover, in the experiment with Arabidopsis seeds [1] (probe compound alone, no antidote), the “growth without the antidote (in words)” value is reported as “Growth is not observed”. The “inhibition of ADSS (in words)” value on ADSS from E. coli and against ADSS from rat liver was “neither the E. coli nor the rat liver ADSS are inhibited” each time. The “effect on the rate of ASL activity” value in experiment [2] is “no effect”. The “inhibition of glutamine synthetase (in words)” value with glutamine synthetase is reported as “not inhibited”. Also, the “reversal of growth inhibition by aromatic amino acids (in words)” value in experiment [3] is given as “not reversed”. Further, the IC90 with Arabidopsis seeds [4] was around 2000 nM.
